“Also recorded” adds a separate entry of the source. Where two headings read alike, the source gives them in different places.
Assays:
cytochrome oxidase (COX) = conditions: brains from ovariectomized mice; cited from earlier work
B16 cells = test: B16 tumor growth in mice with daily subcutaneous S-equol (Example 6); format: in vivo; conditions: S-equol 20 or 60 mg/kg per day s.c. vs PBS vehicle; start at tumor mass 50 to 80 mm^3
Experimental: Further work in a preclinical animal model supports the notion of using S-cquol to treat melanoma. In immunocompromised mouse experiments, using B16, a murine tumor cell line know to be useful to study human melanoma metastasis and solid tumor formation, growth of tumors is suppressed with S-equol treatment compared to control. 0.5×10^6 B16 cells are injected into normal BL mice. When the tumor masses reach 50 to 80 mm^3 (about one week after the inoculation), the mice are given daily subcutaneous injections of S-equol (20 or 60 mg/kg per day) or PBS as a vehicle control. Tumor development is followed by caliper measurements along two orthogonal axes: length (L) and width (W) and volume (V) is estimated by the formula V=[L×(W^2)]/2. Tumors harvested from mice are fixed in 10% neutral-buffered formalin, dehydrated, embedded in paraffin, and sectioned at 3 μm thickness. Representative tumor sections from vehicle control and S-equol-treated mice are tested for Ki-67 expression to assess cell proliferation, and for ERβ pY36. Statistical significance in the experiments is assessed by two-tailed Student's t test. In all assays, p<0.05 is considered statistically significant.

rat hippocampal neurons = conditions: cited from earlier work
melanoma = test: Pilot biomarker clinical study of Ki67 in melanoma subjects (Example 7); format: in vivo, human; conditions: oral S-equol 50 mg twice daily for 10-21 days; 20 subjects with melanoma
Experimental: A pilot biomarker clinical study is performed in 20 subjects with documented melanoma to determine the effect of the ERβ agonist S-equol on Ki67 an indicator of tumor cell proliferation. Tumor cell proliferation is measured by immunohistological staining for Ki-67. Ki-67 is encoded by the gene MKI67 gene and is required to maintain individual mitotic chromosomes dispersed in the cytoplasm following nuclear envelope disassembly. Measuring the fraction of Ki-67-positive cells in a tumor is known to be a reliable parameter for assessing cancer patient prognosis. Subjects with TNBC are known to have very high levels of Ki67.
Patients enrolled in the study receive a history, physical, laboratory assessment, radiological imaging, and diagnostic biopsies. Immunohistochemistry (IHC) of Ki67 (proliferation marker), total ERβ, and pY36-ERβ (phosphorylated ERβ), B7H1 (also known as PDL-1) and MIA and S100B are conducted using core needle biopsy tissue samples prior to treatment. Patients are given oral S-equol 50 mg, twice daily for approximately two weeks (10-21 days) prior to the scheduled oncologic surgeries or start of primary systemic therapy. […]
A standard procedure for acquiring core biopsy is utilized for determining melanoma prior to enrollment. […] The tissue samples are sent for staining of total and pY36, ERβ and Ki67, and analyzed. […]

[1] = tested on: B16 melanoma tumor cell line; test: B16 melanoma tumor challenge in mice, S-equol and anti-PD-1 antibody alone or combined; format: in vivo; conditions: for tumor volume: anti-PD-1 250 μg every 3 days i.p., S-equol 50 mg/kg per day oral gavage
Experimental: FIG. 4. A schema for combination therapy. Mice were administered one of: (1) vehicle+rat IgG2a; (2)S-equol+rat IgG2a; (3) vehicle+anti-PD-1 antibody; or (4)S-equol+anti-PD-1 antibody. Mice receiving anti-PD-1 antibody were given 250 μg every 3 days, intraperitoneally, and mice receiving S-equol were given 50 mg/kg per day by oral gavage. Treatment started 7 days after tumor challenge with B16 melanoma.
Melanoma cell line B16 was tested to determine the effects of a PD-1 inhibitor, S-equol and a combination of the two therapies on tumor growth. This experimental design includes four arms: (1) controls, (2) αPD-1, (3)S-cquol, and (4) αPD-1+S-equol (FIG. 4) by injecting into mice 5×10^5 cells subcutaneously. Antibodies were administered α-PD-1: 250 μg/mice by i.p. injection every 3 days and S-equol was administered at 50 mg/kg/day by oral gavage. Treatment began 7 day after tumor challenge. Tumor growth trajectories were compared within treated mice using a repeated measures linear mixed model. The primary outcome was the logarithm of the tumor size, and the test statistic is the treatment X time interaction. Tumors were measured about 10 times. The number of recipient mice use used in the studies (n=6 per group) was based on the above study.

[2] = tested on: triple negative breast cancer (TNBC); conditions: cited from earlier work

In the case of Oc1ccc([C@H]2COc3cc(O)ccc3C2)cc1 [S-equol], the COX1 protein levels (cytochrome oxidase (COX)) is given as “increase”, the “cytochrome oxidase (COX) activity” value (cytochrome oxidase (COX)) is given as “increase” and the growth of tumors (B16 cells) is given as “suppressed”. The “respiratory and maximal glycolysis fluxes” value (rat hippocampal neurons) was “increase”, the “Ki67 (tumor cell proliferation, IHC) pre- vs post-treatment” value (melanoma) was “measurable decrease; also recorded: measurable decline” and the “effect on anticancer immunotherapy” value ([1]; Example 4, FIGS. 6-9, n=6 per group) was “boost anticancer immunotherapy”. The tumor volume ([1]; FIG. 6, over 12 days post-challenge) was “reduce tumor volume compared to control”, the tumor volume ([1]; FIG. 7, over 19 days post-challenge) was “reduce tumor volume compared to control” and the tumor weight ([1]; FIG. 8A, mice challenged with B16 melanoma) was “reduce tumor weight compared to control”. For the same molecule, the tumor volume ([1]; FIG. 9A, over 16 days (title) / 12 days post-challenge) was “reduce tumor volume compared to control”.
For atezolizumab, the response rate ([2]; 21 evaluable, PD-L1 expressing TNBC tumors) is given as 19%.
In the case of avelumab, the response rate ([2]; 168 TNBC tumors unselected for PD-L1 expression) is given as 8.6%.
In the case of pembrolizumab, the response rate ([2]; Phase 1 study, 27 women with heavily pretreated, chemotherapy resistant, metastatic TNBC that expressed PD-L1) is listed as 18.4%.

Reference: patent publication US12064413B2, “Methods of treating melanoma with S-equol” (The Board of Regents of the University of Texas System, priority 2018, dated 2024)
